“And” between values parts separate entries of the source, which are not always exact repeats. Equal values may be shown once. Read-outs that look alike come from different tables or passages of the source.
Assays:
[1] = system: Salmonella typhimurium strain TA100; test: Mutagenicity assay: Ames test, TA100; details: for concentration from which a mutagenic effect is shown: Salmonella typhimurium, 90 min
Description: (§1) Mutagenicity assay: Ames test. The TA100 and TA98 strains of Salmonella Typhimurium were utilized for mutagenicity assay. Approximately 107 bacteria were exposed to 6 concentrations of each test compound, as well as a positive and a negative control, for 90 min in a medium containing sufficient histidine to support approximately two cell divisions. After 90 min, the exposure cultures were diluted in pH indicator medium lacking histidine, and aliquoted into 48 wells of a 384-well plate. Within two days, cells which had undergone the reversion to His grew into colonies. Metabolism by the bacterial colonies reduced the pH of the medium, changing the color of that well. This color change can be detected visually or by a microplate reader. The number of wells containing revertant colonies were counted for each dose and compared to a zero-dose control. Each dose was tested in six replicates. The following concentrations of Mirin and CA-M11 were tested: 5; 10; 30; 50; 80 and 100 µM. The concentration values tested of Doxorubicin were: 0.3; 1.2; 1.8; 3.0; 6.0 and 30 µM. The experiments were then repeated adding to Doxorubicin concentrations ranging from 0.3 to 30 µM, respectively, Mirin 5 µM and CA-M11 5 µM.

[2] = Microsomal (metabolic) stability; type: in vitro ADME; details: human liver microsomes
Description: Microsomal stability. In the presence of phosphate buffer (PBS 10 mM, pH 7.4), human liver microsomes (HLM) (0.2 mg mL^−1), and a NADPH solution in MgCl2 48 mM, each DMSO compound solution was incubated at 37 °C for 1 h under shaking. Then, the metabolizing reactions were stopped by adding cold acetonitrile (ACN). After centrifuging and drying the reaction mixes under N2 flow, the quantitative analyses were performed using the UV/LC-MS method previously described. The percentages of the metabolized and unmetabolized compounds were calculated as previously described[73],[74].

Plasma stability = test: Plasma stability
Description: (§2) Plasma Stability and stability in the cellular medium. A DMSO stock solution of tested compounds was incubated in the presence of human plasma ([…]) and HEPES buffer (25 mM, 140 mM NaCl, pH 7.4) or DMEM 10% FBS, (1% PS, and 1% Glu) at 37 °C under shaking. At selected time points (0, 0.083, 0.25, 0.5, 1, 2, 8, 24 h), samples were treated with cold ACN to stop reactions through protein denaturation, and centrifuged at 5000 rpm for 10 min. The supernatant was analyzed by UV/LC-MS to monitor the amount of unmodified compound. Data were calculated with Excel and plotted using GraphPad Prism 8.0 (GraphPad Software Inc., San Diego, CA, USA). The half-life value (t1/2) was calculated with the following formula: [drawing 2]

[3] = system: Salmonella typhimurium strain TA98; test: Mutagenicity assay: Ames test, TA98; details: for concentration from which a mutagenic effect is shown: Salmonella typhimurium, 90 min
Description: as §1

[4] = HepG2 cytotoxicity, Neutral Red Uptake; type: cell-based, Human; details: human
Description: (§3) Cell cultures and cytotoxicity assay. To evaluate the in vitro cytotoxicity of the test samples, the direct contact tests, proposed by ISO […], Biological evaluation of medical devices – Part 5: Tests for cytotoxicity: in vitro methods were used[71]. This test is suitable for sample with various shapes, sizes, or physical status (i.e. liquid or solid).
(§4) Evaluation of HepG2 viability. Cells were maintained in DMEM at 37 °C in a humidified atmosphere containing 5% CO2. The culture medium was supplemented with 10% fetal calf serum (FCS), 1% L-glutamine-penicillin-streptomycin solution, and 1% MEM Non-Essential Amino Acid Solution. Once at confluence, cells were washed with PBS 0.1 M, taken up with trypsin-EDTA solution and then centrifuged at 1000 rpm for 5 min. The pellet was re-suspended in medium solution (dilution 1:15).
(§5) The stock solutions of Mirin, Doxorubicin, and CA-M11 were prepared in DMSO. The following concentrations of Mirin and CA-M11 were tested: 5; 10; 20; 30; 40; 50; 60; 70; 80; 90 and 100 µM. […] Then, the experiments were repeated adding to Doxorubicin concentrations ranging from 0.3 to 6.0 µM, respectively, Mirin 5 µM, and CA-M11 5 µM. […] Each experiment was repeated 3 times, and all samples were set up in six replicates. A complete medium was used as negative control. […] At the end of the incubation, the routine culture medium was removed from each well, and cells were carefully rinsed with 1 mL of pre-warmed D-PBS. Multiwells were then gently blotted with paper towels. […] The cells were checked during the NR incubation for NR crystal formation. After incubation, the NR Medium was removed, cells were carefully rinsed with 1 mL of pre-warmed D-PBS. Then, the PBS was decanted and blotted from the wells and exactly 1 mL of NR Desorb solution was added to each sample. […] During this step the samples were covered in order to protect them from light. After 5 min from the plate shaker removal the absorbance was read at 540 nm by a UV/visible spectrophotometer (UV5, Mettler Toledo).

PAMPA assay = type: in vitro ADME; details: 4 h, rt
Description: PAMPA assay. The DMSO stock solution of each compound was diluted 1:1 v/v with phosphate buffer (PBS 10 mM, pH 7.4) to obtain donor solutions. Each well of the filter plate was covered with a 1% w/v L-α-phosphatidylcholine solution (PC) in dodecane used to mimic the phospholipidic bilayer and then added with the donor. In the acceptor plate, a mixture solution of DMSO/PBS 1:1 v/v was placed, and the sandwich was incubated at rt for 4 h under gentle shaking. At the end time point, samples were taken from both the upper and the lower plates and analyzed using the UV/LC-MS method described above. Apparent permeability (Papp cm/s x 10^−6) and membrane retention (MR %) was calculated as previously reported.

[5] = Stability in DMEM cell culture medium
Description: as §2

[6] = Extraction recovery from denatured microsomes (matrix effect); details: human, Recovery (% Rec, Time 0'), denatured human liver microsomes
Description: Therefore, matrix effects were investigated by preparing fresh time-zero solutions made of denatured microsomes, solvent mix and tested compounds. To have a better correlation with the time-zero of the metabolic stability experiments, final volumes and concentrations used were not modified.
Extraction Recovery % (% Rec) of CA-M11 and Mirin in human liver microsomes. Data are reported as the mean ± standard deviation (SD) of n=3 experiments run in triplicates.

HepG2 cells = test: HepG2 cytotoxicity, Neutral Red Uptake; type: cell-based, Human
Description: as §3, §4, §5

[H]/N=C1/NC(=O)C(=Cc2ccc(O)cc2)S1 [Mirin, (Z)-5-(4-Hydroxybenzylidene)-2-iminothiazolidin-4-one]
effect on Doxorubicin mutagenicity ([1]; 5 µM compound + Doxorubicin 0.3 to 30 µM, TA100): not able to affect Doxorubicin mutagenicity | Metabolic stability (%) ([2]; time 0 min): 92.32 ± 1.93% | Metabolic stability (%) ([2]; time 60 min): 90.65 ± 0.83% | Plasma stability (% ± SD) (Plasma stability; human plasma, time 0 h): 89.10 ± 1.03% | Plasma stability (% ± SD) (Plasma stability; human plasma, time 0.083 h): 90.80 ± 0.13% | Plasma stability (% ± SD) (Plasma stability; human plasma, time 0.25 h): 92.18 ± 1.34% | Plasma stability (% ± SD) (Plasma stability; human plasma, time 0.5 h): 88.72 ± 3.98% | Plasma stability (% ± SD) (Plasma stability; human plasma, time 1 h): 89.70 ± 2.23% | Plasma stability (% ± SD) (Plasma stability; human plasma, time 2 h): 84.51 ± 2.93% | Plasma stability (% ± SD) (Plasma stability; human plasma, time 8 h): 83.07 ± 2.40% | Plasma stability (% ± SD) (Plasma stability; human plasma, time 24 h): 77.94% and 77.94 ± 2.30% | percentage of unmodified compound in plasma (Plasma stability; human plasma, up to 8 h of incubation): ≥ 80% | effect on Doxorubicin mutagenicity ([3]; 5 µM compound + Doxorubicin 0.3 to 30 µM, TA98): not able to affect Doxorubicin mutagenicity | IC50 at 24 h ([4]; HepG2, 24 h, Neutral Red Uptake, read-out: IC50 (cytotoxic effect)): 50 µM | Membrane retention MR (%) (PAMPA assay): 1.16 ± 0.90% | half-life [5]: > 100 h | stability percentage in DMEM cell culture medium ([5]; DMEM 10% FBS, all time points up to 24 h): above 90% | DMEM cell culture medium stability (% ± SD) ([5]; DMEM 10% FBS, time 0 h): 104.19 ± 1.20% | DMEM cell culture medium stability (% ± SD) ([5]; DMEM 10% FBS, time 0.083 h): 106.18 ± 0.16% | DMEM cell culture medium stability (% ± SD) ([5]; DMEM 10% FBS, time 0.25 h): 107.78 ± 1.57% | DMEM cell culture medium stability (% ± SD) ([5]; DMEM 10% FBS, time 0.5 h): 103.73 ± 2.61% | DMEM cell culture medium stability (% ± SD) ([5]; DMEM 10% FBS, time 1 h): 104.88 ± 6.37% | DMEM cell culture medium stability (% ± SD) ([5]; DMEM 10% FBS, time 2 h): 98.81 ± 3.43% | DMEM cell culture medium stability (% ± SD) ([5]; DMEM 10% FBS, time 8 h): 97.14 ± 2.81% | DMEM cell culture medium stability (% ± SD) ([5]; DMEM 10% FBS, time 24 h): 91.14 ± 2.70% | half-life ([5]; buffer): 114 h | recovery at 0 min [6]: 92.3 ± 1.92%

C[C@H](CCC(=O)Oc1ccc(/C=C2\SC(=N)NC2=O)cc1)[C@H]1CCC2C3C(C[C@H](O)[C@@]21C)[C@@]1(C)CC[C@@H](O)CC1C[C@H]3O (stereo partly drawn) [CA-M11, (4R)-4-((Z)-(2-Imino-4-oxothiazolidin-5-ylidene)methyl)phenyl 4-((3R,7R,10 S,12 S,13R,17R)-3,7,12-trihydroxy-10,13-dimethylhexadecahydro-1 H-cyclopenta[a]phenanthren-17-yl)pentanoate]
concentration from which a mutagenic effect is shown [1]: ≥ 10 µM | Plasma stability (% ± SD) (Plasma stability; human, 0 h, pH 7.4): 72.79 ± 2.57% | Plasma stability (% ± SD) (Plasma stability; human, 0.083 h, pH 7.4): 74.01 ± 0.65% | Plasma stability (% ± SD) (Plasma stability; human, 0.25 h, pH 7.4): 72.29 ± 3.22% | Plasma stability (% ± SD) (Plasma stability; human, 0.5 h, pH 7.4): 75.47 ± 0.04% | compound hydrolyzed by plasmatic esterases (Plasma stability; human, pH 7.4): Approximately 30% | half-life (Plasma stability; human, plasma, pH 7.4, t 1/2 (half-life) in plasma): ~18 h | concentration from which a mutagenic effect is shown [3]: ≥ 10 µM | IC50 at 24 h [4]: 40 µM | cytotoxic effect on HepG2 cells at 5 µM (HepG2 cells): does not exert a significant cytotoxic effect | increase of cell death in combination with Doxorubicin (HepG2 cells; 5 µM compound + Doxorubicin 2.4 µM, HepG2, 24 h): roughly 40% | Membrane retention MR (%) (PAMPA assay): 2.26 ± 0.64% | DMEM cell culture medium stability (% ± SD) ([5]; 0 h): 93.96 ± 5.76% | DMEM cell culture medium stability (% ± SD) ([5]; 0.083 h): 91.94 ± 0.85% | DMEM cell culture medium stability (% ± SD) ([5]; 0.25 h): 94.24 ± 0.37% | DMEM cell culture medium stability (% ± SD) ([5]; 0.5 h): 94.77 ± 0.60% | DMEM cell culture medium stability (% ± SD) ([5]; 1 h): 92.08 ± 2.15% | DMEM cell culture medium stability (% ± SD) ([5]; 2 h): 82.83 ± 3.38% | half-life ([5]; buffer): 21.7 h | recovery at 0 min [6]: < 70%

COc1cccc2c1C(=O)c1c(O)c3c(c(O)c1C2=O)C[C@@](O)(C(=O)CO)C[C@@H]3O[C@H]1C[C@H](N)[C@H](O)[C@H](C)O1 [Doxorubicin]
concentration from which a mutagenic effect is shown [1]: ≥ 10 µM | concentration from which a mutagenic effect is shown [3]: ≥ 10 µM | viability at 24 h, 0.3 µM ([4]; HepG2 cells, Doxorubicin 0.3 µM, 24 h, read-out: Percentage of viable HepG2 cells): 84.7% | viability at 24 h, 0.6 µM ([4]; HepG2 cells, Doxorubicin 0.6 µM, 24 h, read-out: Percentage of viable HepG2 cells): 73.4% | viability at 24 h, 1.2 µM ([4]; HepG2 cells, Doxorubicin 1.2 µM, 24 h, read-out: Percentage of viable HepG2 cells): 65% | viability at 24 h, 1.8 µM ([4]; HepG2 cells, Doxorubicin 1.8 µM, 24 h, read-out: Percentage of viable HepG2 cells): 49.9% | viability at 24 h, 2.4 µM ([4]; HepG2 cells, Doxorubicin 2.4 µM, 24 h, read-out: Percentage of viable HepG2 cells): 38.4% | viability at 24 h, 3 µM ([4]; HepG2 cells, Doxorubicin 3.0 µM, 24 h, read-out: Percentage of viable HepG2 cells): 28.3% | viability at 24 h, 6 µM ([4]; HepG2 cells, Doxorubicin 6.0 µM, 24 h, read-out: Percentage of viable HepG2 cells): 18.9% | viability at 24 h, 12 µM ([4]; HepG2 cells, Doxorubicin 12.0 µM, 24 h, read-out: Percentage of viable HepG2 cells): 5.8% | IC50 at 24 h ([4]; HepG2 cells, HepG2, 24 h, Neutral Red Uptake, read-out: IC50 (cytotoxic effect)): 1.8 µM
